Measurements published in PubChem BioAssay AID1259408 (Genetic Toxicology Data Bank (GENE-TOX), 2018).
Calls of active or inactive are those of the source. How the calls were made is not given here.

Tested on: GENE-TOX genotoxicity assays, various organisms and cells
Test: GENE-TOX mutagenicity studies
Settings: for call: Assay Type: In vivo carcinogenicity studies
[1] = Species/Cell Type: Human, Assay Type: Sister-chromatid exchange (SCE) in vitro, Assay Code: SC1+D, Dose Response: With dose response, Evaluation Type: Evaluation B (Post-1980)
[2] = Species/Cell Type: Nonhuman, Assay Type: Sister-chromatid exchange (SCE) in vivo, Assay Code: SC3-, Evaluation Type: Evaluation A (Pre-1980)
[3] = Species/Cell Type: Vicia faba, Assay Type: Chromosome aberrations, Assay Code: VIC+, Evaluation Type: Evaluation A (Pre-1980)
[4] = Species/Cell Type: Escherichia coli polA (W3119 vs P3478), Assay Type: Rec-assay, DNA effects (bacterial DNA repair), Assay Code: RE1T, Evaluation Type: Evaluation A (Pre-1980)
[5] = Species/Cell Type: Mouse (BALB/c-3T3) cells, Assay Type: Cell transformation, Assay Code: CTB-, Evaluation Type: Evaluation A (Pre-1980)
[6] = Species/Cell Type: Nonhuman, Assay Code: CCGT, Evaluation Type: Evaluation A (Pre-1980)
[7] = Species/Cell Type: Nonhuman, Assay Type: Sister-chromatid exchange (SCE) in vitro, Assay Code: SC2+D, Dose Response: With dose response, Evaluation Type: Evaluation B (Post-1980)
[8] = Species/Cell Type: Salmonella typhimurium (one or more of the five standard strains: TA98, TA100, TA1535, TA1537, and TA1538), Assay Type: Histidine reverse gene mutation, Ames assay, Assay Code: SAL-, Evaluation Type: Evaluation A (Pre-1980)
[9] = Species/Cell Type: Syrian hamster embryo (SHE) cells, Assay Type: Cell transformation, clonal assay, Assay Code: CTC-, Evaluation Type: Evaluation A (Pre-1980)
[10] = Species/Cell Type: Saccharomyces cerevisiae, Assay Type: Mitotic recombination or gene conversion, Assay Code: YEH+, Evaluation Type: Evaluation A (Pre-1980)

With `O=[O+][O-]` the mutagenic call (Species/Cell Type: Human lymphocytes or leukocytes, Assay Type: Chromosome aberrations in vitro, Assay Code: CY7T, Evaluation Type: Evaluation A (Pre-1980)) was “no conclusion”, the mutagenic call (Species/Cell Type: Human lymphocytes or leukocytes, Assay Type: Chromosome aberrations in vivo, Assay Code: CY8T, Evaluation Type: Evaluation A (Pre-1980)) was “no conclusion” and the mutagenic call [1] was “active; positive”. The mutagenic call (Species/Cell Type: Mammalian germ cells, Sex: Male, Assay Type: Chromosome aberrations in vivo, Assay Code: CY9T, Evaluation Type: Evaluation A (Pre-1980)) was “no conclusion”, the mutagenic call (Species/Cell Type: Nonhuman bone marrow, Assay Type: Chromosome aberrations, in vivo, Assay Code: CY#-, Evaluation Type: Evaluation A (Pre-1980)) was “inactive; negative” and the mutagenic call (Species/Cell Type: Nonhuman lymphocytes or leukocytes, Assay Type: Chromosome aberrations in vivo, Assay Code: CY%T, Evaluation Type: Evaluation A (Pre-1980)) was “no conclusion”. The mutagenic call [2] was “inactive; negative”, the mutagenic call (Species/Cell Type: Tradescantia species, Assay Type: Gene mutation, Assay Code: TRM+D, Dose Response: With dose response, Evaluation Type: Evaluation A (Pre-1980)) was “active; positive” and the mutagenic call [3] was “active; positive”.
With `CNC(=O)Oc1cccc(C)c1` the mutagenic call (Species/Cell Type: Bacillus subtilis (H17 vs M45T), Assay Type: Rec-assay, spot test, DNA effects (bacterial DNA repair), Assay Code: REX-, Evaluation Type: Evaluation A (Pre-1980)) was “inactive; negative” and the mutagenic call (Species/Cell Type: Escherichia coli WP2, Assay Type: Tryptophan reverse gene mutation, Assay Code: WP2-, Evaluation Type: Evaluation A (Pre-1980)) was “inactive; negative”.
With `c1ccc2cc3ccccc3cc2c1` the mutagenic call (Species/Cell Type: Escherichia coli polA (W3110 vs P3478), Assay Type: Rec-assay, DNA effects (bacterial DNA repair), Assay Code: RE2-, Evaluation Type: Evaluation A (Pre-1980)) was “inactive; negative”, the mutagenic call [4] was “no conclusion” and the mutagenic call (Species/Cell Type: Fischer rat embryo (RLV/1706) cells, Assay Type: Cell transformation, viral enhanced, Assay Code: CTRT, Evaluation Type: Evaluation A (Pre-1980)) was “no conclusion”. The mutagenic call (Species/Cell Type: Human diploid fibroblasts, Assay Type: Unscheduled DNA synthesis (UDS) in vitro, DNA effects, Assay Code: UDH-*, Activation: With metabolic activation, Evaluation Type: Evaluation A (Pre-1980)) was “inactive; negative”, the mutagenic call (Species/Cell Type: Mammalian polychromatic erythrocytes, Assay Type: Micronucleus test, chromosome aberrations, Assay Code: MNTT, Evaluation Type: Evaluation A (Pre-1980)) was “no conclusion” and the mutagenic call [5] was “inactive; negative”. The mutagenic call (Species/Cell Type: Mouse embryo (AKR/ME) cells, Assay Type: Cell transformation, Assay Code: CTK-, Evaluation Type: Evaluation A (Pre-1980)) was “inactive; negative”, the mutagenic call (Species/Cell Type: Mouse, Sex: Male, Assay Type: Sperm morphology, Assay Code: SPI-, Evaluation Type: Evaluation A (Pre-1980)) was “inactive; negative” and the mutagenic call (Species/Cell Type: Nonhuman, Assay Type: Chromosome aberrations in vitro, Assay Code: CY&-, Evaluation Type: Evaluation A (Pre-1980)) was “inactive; negative”. For the same compound, the call [6] was “no conclusion”, the mutagenic call [7] was “active; positive” and the mutagenic call (Species/Cell Type: Nonhuman, Assay Type: Sister-chromatid exchange (SCE) in vitro, Assay Code: SC2T, Evaluation Type: Evaluation A (Pre-1980)) was “no conclusion”. For the same compound, the mutagenic call [2] was “inactive; negative”, the mutagenic call (Species/Cell Type: Nonhuman, Assay Type: Sister-chromatid exchange (SCE) in vivo, Assay Code: SC3T, Evaluation Type: Evaluation B (Post-1980)) was “no conclusion” and the mutagenic call (Species/Cell Type: Rat primary hepatocytes, Assay Type: Unscheduled DNA synthesis (UDS) in vitro, DNA effects, Assay Code: UDP-, Evaluation Type: Evaluation A (Pre-1980)) was “inactive; negative”. The mutagenic call (Species/Cell Type: Saccharomyces cerevisiae, Assay Type: Mitotic recombination or gene conversion, Assay Code: YEH-, Evaluation Type: Evaluation A (Pre-1980)) was “inactive; negative”, the mutagenic call [8] was “inactive; negative” and the mutagenic call (Species/Cell Type: Salmonella typhimurium, Assay Type: Forward and reverse gene mutation, host-mediated assay, Assay Code: HMAT, Evaluation Type: Evaluation A (Pre-1980)) was “no conclusion”. The mutagenic call [9] was “inactive; negative”.
With `COC(=O)Nc1nc2ccccc2[nH]1` the mutagenic call (Species/Cell Type: Allium cepa, Assay Type: Chromosome aberrations, Assay Code: ALC+, Evaluation Type: Evaluation A (Pre-1980)) was “active; positive”, the mutagenic call (Species/Cell Type: Aspergillus nidulans, Assay Type: Aneuploidy, chromosome aberrations, Assay Code: ASN+, Evaluation Type: Evaluation A (Pre-1980)) was “active; positive” and the mutagenic call (Species/Cell Type: Aspergillus nidulans, Assay Type: Mitotic recombination, Assay Code: ASGT, Evaluation Type: Evaluation A (Pre-1980)) was “no conclusion”. The mutagenic call (Species/Cell Type: Human lymphocytes, Assay Type: Sister-chromatid exchange (SCE) in vitro, Assay Code: SCL+D, Dose Response: With dose response, Evaluation Type: Evaluation B (Post-1980)) was “active; positive”, the mutagenic call [1] was “active; positive” and the mutagenic call (Species/Cell Type: Mouse, Sex: Female, Assay Type: Spot test, gene mutation, Assay Code: MST+, Evaluation Type: Evaluation A (Pre-1980)) was “active; positive”. The mutagenic call (Species/Cell Type: Saccharomyces cerevisiae, Assay Type: Mitotic recombination or gene conversion, Assay Code: YEC+, Evaluation Type: Evaluation A (Pre-1980)) was “active; positive” and the mutagenic call [10] was “active; positive”.
`Cc1c2ccccc2c(CO)c2c1ccc1ccccc12` was tested, and the mutagenic call (Species/Cell Type: Chinese hamster lung (V79) cells, Assay Type: Forward gene mutation at the HPRT or ouabain locus, Assay Code: V79+, Evaluation Type: Evaluation A (Pre-1980)) was “active; positive” and the call (Species/Cell Type: Nonhuman, Assay Code: CCG+L, Evaluation Type: Evaluation A (Pre-1980)) was “active; positive”.
`NC(=O)N/N=C/c1ccco1` was tested, and the mutagenic call (Species/Cell Type: Escherichia coli WP2 UVRA, Assay Type: Tryptophan reverse gene mutation, Assay Code: WPU-, Evaluation Type: Evaluation A (Pre-1980)) was “inactive; negative”.
With `NO` the mutagenic call (Species/Cell Type: Allium cepa, Assay Type: Chromosome aberrations, Assay Code: ALC+D, Dose Response: With dose response, Evaluation Type: Evaluation A (Pre-1980)) was “active; positive”, the mutagenic call (Species/Cell Type: Arabidopsis species, Assay Type: Gene mutation, Assay Code: ARM-, Evaluation Type: Evaluation A (Pre-1980)) was “inactive; negative” and the mutagenic call (Species/Cell Type: Drosophila melanogaster, Assay Type: Aneuploidy, sex chromosome gain, chromosome aberrations, Assay Code: DAGT, Evaluation Type: Evaluation A (Pre-1980)) was “no conclusion”. For the same compound, the mutagenic call (Species/Cell Type: Drosophila melanogaster, Assay Type: Aneuploidy, whole sex chromosome loss, chromosome aberrations, Assay Code: DAC-M, Evaluation Type: Evaluation A (Pre-1980)) was “inactive; negative”, the mutagenic call (Species/Cell Type: Drosophila melanogaster, Assay Type: Sex-linked recessive lethal gene mutation, Assay Code: SRLT, Evaluation Type: Evaluation A (Pre-1980)) was “no conclusion” and the mutagenic call (Species/Cell Type: Escherichia coli polA (W3119 vs P3478), Assay Type: Rec-assay, DNA effects (bacterial DNA repair), Assay Code: RE1+, Evaluation Type: Evaluation A (Pre-1980)) was “active; positive”. The mutagenic call (Species/Cell Type: Fischer rat embryo (RLV/1706) cells, Assay Type: Cell transformation, viral enhanced, Assay Code: CTR+, Evaluation Type: Evaluation A (Pre-1980)) was “active; positive”, the mutagenic call (Species/Cell Type: Glycine max (soybean), Assay Type: Gene mutation, Assay Code: GLM-, Evaluation Type: Evaluation A (Pre-1980)) was “inactive; negative” and the mutagenic call (Species/Cell Type: Human diploid fibroblasts, Assay Type: Unscheduled DNA synthesis (UDS) in vitro, DNA effects, Assay Code: UDH-, Evaluation Type: Evaluation A (Pre-1980)) was “inactive; negative”. The mutagenic call (Species/Cell Type: Human lymphocytes or leukocytes, Assay Type: Chromosome aberrations in vitro, Assay Code: CY7-, Evaluation Type: Evaluation A (Pre-1980)) was “inactive; negative”, the mutagenic call [5] was “inactive; negative” and the mutagenic call (Species/Cell Type: Neurospora crassa, Assay Type: Forward gene mutation, Assay Code: NEF+, Evaluation Type: Evaluation A (Pre-1980)) was “active; positive”. For the same compound, the call [6] was “no conclusion”, the mutagenic call [7] was “active; positive” and the mutagenic call (Species/Cell Type: Saccharomyces cerevisiae, Assay Type: Forward gene mutation, Assay Code: YEF+, Evaluation Type: Evaluation A (Pre-1980)) was “active; positive”. The mutagenic call [10] was “active; positive”, the mutagenic call [8] was “inactive; negative” and the mutagenic call (Species/Cell Type: Schizosaccharomyces pombe, Assay Type: Forward gene mutation, Assay Code: YEY+, Evaluation Type: Evaluation A (Pre-1980)) was “active; positive”. For the same compound, the mutagenic call [9] was “inactive; negative” and the mutagenic call [3] was “active; positive”.
In the case of `CC(=O)Nc1nc(-c2csc(NC(C)=O)n2)cs1`, the mutagenic call (Species/Cell Type: Salmonella typhimurium (one or more of the five standard strains: TA98, TA100, TA1535, TA1537, and TA1538), Assay Type: Histidine reverse gene mutation, Ames assay, Assay Code: SALT, Evaluation Type: Evaluation A (Pre-1980)) is reported as “no conclusion”.
With `Oc1ccc2ncccc2c1` the mutagenic call [8] was “inactive; negative”.
`CC(O)c1ccccc1` (configuration not stated) was tested, and the mutagenic call [4] was “no conclusion”.
In the case of `C/C=C/C1=CN2C(=O)c3cc(O[C@@H]4O[C@@H](C)[C@H](NC)[C@@](C)(O)[C@H]4O)c(C)c(O)c3N[C@H](O)[C@@H]2C1`, the mutagenic call (Species/Cell Type: Mammalian polychromatic erythrocytes, Assay Type: Micronucleus test, chromosome aberrations, Assay Code: MNT+U, Dose Response: Unconfirmed positive response, Evaluation Type: Evaluation B (Post-1980)) is reported as “active; positive”.
With `C#C[C@]1(O)CC[C@H]2[C@@H]3CCc4cc(CC)ccc4[C@H]3CC[C@@]21C` (tested in a mixture with another compound) the mutagenic call (Species/Cell Type: Rodents, Sex: Male, Assay Type: Dominant lethal test, Assay Code: DLTT, Evaluation Type: Evaluation A (Pre-1980)) was “no conclusion”.
In the case of `[Cl][Tb]([Cl])[Cl]`, the mutagenic call (Species/Cell Type: Bacillus subtilis (H17 vs M45), Assay Type: Rec-assay, spot test, DNA effects (bacterial DNA repair), Assay Code: REW-, Evaluation Type: Evaluation A (Pre-1980)) is reported as “inactive; negative”.
